Where two headings read alike, the source gives them in different places. Blank lines part the entries; values can stand above or below the compound they belong to.
Tests used:
Type in all cases: physicochemical
[1] = Water activity study (competition of forms, XRPD); conditions: for XPRD results, Form: room temperature
Method: Water activity study was performed using Compound 3 Form B (anhydrate) as the input material in EtOH/Water with different water content at RT. About 5 mg of Compound 3, Form B was used to prepare saturated solutions and the solutions were filtered by syringe at RT. 5 mg of Compound 3, Form D were added in the 1 mL of filtrate, and the suspension was slurried at RT for 3 and 7 days. The solids collected after filtration were analyzed by XRPD.
Protocol: excess amount of Compound 4 Form B was used to prepare saturated solutions. 6-8 mg each of Compound 4 Form B and Form D were added in the solutions. The suspension was slurried at room temperature for the corresponding times. Residual solids were collected by filtration with syringe filter, and characterized by XRPD.

[2] = Competitive slurry experiment evaluated by XRPD
Source text: Competitive slurry experiment for Compound 4 Form B and Form D Competitive slurry experiments of Compound 4 Form B and Form D were set up to verify the relative stability relationship. It was supposed that Form D was the stable form at high water activity, while Form B was stable at low water activity. All the solvents used was analytical grade and should contained trace amounts of water. […] The water activity at elevated temperature is lower than at low temperature. Therefore, Form B was obtained in ACN at 50° C., while Form D was the stable form at room temperature.

[3] = Thermal treatment (heat-cool cycle by DSC, XRPD of resulting solids)
Method: Compound 3, Form E was treated with heat-cool cycle by DSC. The resulted solids were characterized by XRPD. Compound 3, Form E, was converted to Compound 3, Form D after desolvation.
Compound 4 Form B was treated with heat-cool cycle by DSC. The resulted solids were checked by XRPD. […] The water was excluded at elevated temperature, then entered in the crystal lattice again at room temperature.
Compound 4 Form C and trace Form B was treated with heat-cool cycle by DSC. The resulted solids were checked by XRPD. The sample was converted to low crystalline (LC) Form B after heating to 175° C.
Compound 4 Form D was treated with heat-cool cycle by DSC. The resulted solids were checked by XRPD. The sample kept unchanged after heating to 140° C., but was converted to a new low crystalline form after heating to 210° C. which was assigned to Form F.

[4] = Slurry study evaluated by XRPD
Method: About 20 mg of Compound 3, Form B was weighed into a sample vial and then 1 mL of solvent was added to make a suspension. The suspension was stirred at room temperature or 50° C. for 3 days and 11 days. Then, the wet solid was collected by filtration and analyzed by XRPD.
20-30 mg of Compound 4 Form B was added in 1 mL of selected solvents at room temperature or 50° C. The suspension was slurried at room temperature or 50° C. for 3 days and 11 days. The wet solids collected from filtration were examined by XRPD. There were four crystal forms obtained by slurrying, including di-mesylate Forms B, C and D as well as mono-mesylate Form G.

[5] = Estimated solubility by solvent addition method via visual assessment; conditions: thermodynamic from solid, read-out: Solubility, Concentration
Method: Solubility of Compound 3 Form B was estimated in 30 solvents at room temperature and in 9 organic solvents at 70° C. using solvent addition method via visual assessment.
Protocol: about 3 mg of Compound 3 Form B was weighed into a sample vial and the solvent was added gradually with vortex until the drug solution was clear by observation or a total of 2 mL solvent was added. Then, the estimated solubility (mg/mL) was calculated.
Solubility of Compound 4, Form B was estimated in 18 solvents at room temperature using solvent addition method via visual assessment. About 3 mg of Compound 4, Form B was weighed into a sample vial and the solvent was added gradually with vortex until the solution was clear by observation or a total of 2 mL solvent was added. Then, the estimated solubility (mg/mL) was calculated.

[6] = slurry at 50° C., printed at MeOH

Compound: Cc1n[nH]c2nc(-c3ccc(NS(=O)(=O)c4cc(F)ccc4F)c(F)c3)nc(NCCN(C)C)c12.Cl [Compound 3 Form B + D]
XPRD results 3 D/Wet, 7 D/Wet, 7 D/Dried ([1]; EtOH/Water 24.7/75.3 (V/%), aW 0.92, RT): Form D + extra peak
XPRD results 3 D/Wet, 7 D/Wet, 7 D/Dried ([1]; EtOH/Water 58.1/41.9 (V/%), aW 0.82, RT): Form D + extra peak
XPRD results 3 D/Wet, 7 D/Wet, 7 D/Dried ([1]; EtOH/Water 82.9/17.1 (V/%), aW 0.64, RT): Form D
XPRD results 3 D/Wet, 7 D/Wet, 7 D/Dried ([1]; EtOH/Water 92.8/7.2 (V/%), aW 0.41, RT): Form D
XPRD results 3 D/Wet, 7 D/Wet, 7 D/Dried ([1]; EtOH/Water 97/3 (V/%), aW 0.21, RT): Form D
XPRD results 3 D/Wet, 7 D/Wet, 7 D/Dried ([1]; EtOH/Water 98.4/1.6 (V/%), aW 0.12, RT): Form D

Compound: Cc1n[nH]c2nc(-c3ccc(NS(=O)(=O)c4cc(F)ccc4F)c(F)c3)nc(NCCN(C)C)c12.Cl [Compound 3 Form E]
XRPD Resulting Form ([3]; Heated to 114° C. at 10° C./min, and cooled to 25° C. at 5° C./min): Form E
XRPD Resulting Form ([3]; Heated to 160° C. at 10° C./min, and cooled to 25° C. at 5° C./min): Form D

Compound: Cc1n[nH]c2nc(-c3ccc(NS(=O)(=O)c4cc(F)ccc4F)c(F)c3)nc(NCCN(C)C)c12.Cl [Compound 3 Form B]
XRPD Day 3/Wet [4, 6]: Form D
XRPD Day 11/Wet [4, 6]: Form D
XRPD Day 3/Wet ([4]; slurry at RT, 1,4-Dioxane 1 mL, cell apparently merged down for IPA, IPAC, MTBE, Water, n-Heptane, Acetone, EA, ACN, DCM, MIBK, MEK): Form D
XRPD Day 3/Wet ([4]; slurry at RT, EtOH 1 mL): Form D
XRPD Day 3/Wet ([4]; slurry at RT, MeOH 1 mL): Amorphous
XRPD Day 3/Wet ([4]; slurry at RT, THF 1 mL): Amorphous
XRPD Day 11/Wet ([4]; slurry at RT, printed at MeOH): Form D
solubility ([5]; aqueous with cosolvent or surfactant or cyclodextrin, Acetone/Water (1/1), RT): < 1500 µg/mL
solubility ([5]; organic solvent or mixture, 1,4-Dioxane, RT): < 1500 µg/mL
solubility ([5]; organic solvent or mixture, 2-Me-THF, RT): < 1500 µg/mL
solubility ([5]; organic solvent or mixture, ACN, RT): < 1500 µg/mL
solubility ([5]; organic solvent or mixture, ACN/Water (9/1), RT): 1500 to 1700 µg/mL
solubility ([5]; organic solvent or mixture, Acetic acid, 70° C.): < 1500 µg/mL
solubility ([5]; organic solvent or mixture, Acetic acid, RT): < 1500 µg/mL
solubility ([5]; organic solvent or mixture, Acetone, 70° C.): < 1500 µg/mL
solubility ([5]; organic solvent or mixture, Acetone, RT): < 1500 µg/mL
solubility ([5]; organic solvent or mixture, Acetone/MeOH (1/1), RT): 1500 to 1600 µg/mL
solubility ([5]; organic solvent or mixture, Benzyl alcohol, 70° C.): < 1500 µg/mL
solubility ([5]; organic solvent or mixture, Benzyl alcohol, RT): < 1500 µg/mL
solubility ([5]; organic solvent or mixture, DCM, RT): < 1500 µg/mL
solubility ([5]; organic solvent or mixture, DCM/MeOH (3/1), RT): < 1500 µg/mL
solubility ([5]; organic solvent or mixture, DMA, 70° C.): 20000 to 40000 µg/mL
solubility ([5]; organic solvent or mixture, DMA, RT): 3000 to 3300 µg/mL
solubility ([5]; organic solvent or mixture, DMF, 70° C.): 16700 to 20000 µg/mL
solubility ([5]; organic solvent or mixture, DMF, RT): 2000 to 3000 µg/mL
solubility ([5]; organic solvent or mixture, DMSO, 70° C.): > 40000 µg/mL
solubility ([5]; organic solvent or mixture, DMSO, RT): 5400 to 5500 µg/mL
solubility ([5]; organic solvent or mixture, EA, RT): < 1500 µg/mL
solubility ([5]; organic solvent or mixture, EtOH, 70° C.): < 1500 µg/mL
solubility ([5]; organic solvent or mixture, EtOH, RT): < 1500 µg/mL
solubility ([5]; organic solvent or mixture, IPA, RT): < 1500 µg/mL
solubility ([5]; organic solvent or mixture, IPAC, RT): < 1500 µg/mL
solubility ([5]; organic solvent or mixture, IPE, RT): < 1500 µg/mL
solubility ([5]; organic solvent or mixture, MEK, RT): < 1500 µg/mL
solubility ([5]; organic solvent or mixture, MIBK, RT): < 1500 µg/mL
solubility ([5]; organic solvent or mixture, MTBE, RT): < 1500 µg/mL
solubility ([5]; organic solvent or mixture, Me-cyclohexane, RT): < 1500 µg/mL
solubility ([5]; organic solvent or mixture, MeOH, RT): < 1500 µg/mL
solubility ([5]; organic solvent or mixture, MeOH/Water (9/1), RT): 2500 to 3000 µg/mL
solubility ([5]; organic solvent or mixture, NMP, 70° C.): > 40000 µg/mL
solubility ([5]; organic solvent or mixture, NMP, RT): 3000 to 3800 µg/mL
solubility ([5]; organic solvent or mixture, THF, 70° C.): < 1500 µg/mL
solubility ([5]; organic solvent or mixture, THF, RT): < 1500 µg/mL
solubility ([5]; organic solvent or mixture, THF/Water (9/1), RT): 1600 to 1900 µg/mL
solubility ([5]; organic solvent or mixture, n-Heptane, RT): < 1500 µg/mL
solubility ([5]; Water, RT): < 1500 µg/mL

The remaining lines, values ahead:

XPRD results, Form ([1]; ACN/water, aW 0.37, 8 d): Form D
XPRD results, Form ([1]; ACN/water, aW 0.37, 14 d): Form D
XPRD results, Form ([1]; ACN/water, aW 0.58, 8 d): Form D
XPRD results, Form ([1]; ACN/water, aW 0.58, 14 d): Form D
XPRD results, Form ([1]; ACN/water, aW 0.78, 8 d): Form D
XPRD results, Form ([1]; ACN/water, aW 0.78, 14 d): Form D
XPRD results, Form ([1]; ACN/water, aW 0.90, 8 d): Form D
XPRD results, Form ([1]; ACN/water, aW 0.90, 14 d): Form D
XPRD results, Form ([1]; MeOH/water, aW 0.08, 3 d): Forms B + D
XPRD results, Form ([1]; MeOH/water, aW 0.08, 7 d): Form B
XPRD results, Form ([1]; MeOH/water, aW 0.16, 3 d): Form D
XPRD results, Form ([1]; MeOH/water, aW 0.16, 7 d): Form D
Results 8 d (XRPD) ([2]; ACN, 50° C.): Form B
Results 14 d (XRPD) ([2]; ACN, 50° C.): Form B
Results 8 d (XRPD) ([2]; ACN, RT): Form B + Form D
Results 14 d (XRPD) ([2]; ACN, RT): Form D
Results 8 d (XRPD) ([2]; IPAC, 50° C.): Form D
Results 14 d (XRPD) ([2]; IPAC, 50° C.): Form D
Results 8 d (XRPD) ([2]; IPAC, RT): Form D
Results 14 d (XRPD) ([2]; IPAC, RT): Form D
Results 8 d (XRPD) ([2]; MeOH, 50° C.): Form B
Results 14 d (XRPD) ([2]; MeOH, 50° C.): Form B
Results 8 d (XRPD) ([2]; MeOH, RT): Form B
Results 14 d (XRPD) ([2]; MeOH, RT): Form B
Compound: Cc1n[nH]c2nc(-c3ccc(NS(=O)(=O)c4cc(F)ccc4F)c(F)c3)nc(NCCN(C)C)c12 [Compound 4 Forms B + D]

XRPD Resulting Form ([3]; Heated to 175° C. at 10° C./min, and cooled to 25° C. at 5° C./min): Form B (LC)
Compound: Cc1n[nH]c2nc(-c3ccc(NS(=O)(=O)c4cc(F)ccc4F)c(F)c3)nc(NCCN(C)C)c12 [Compound 4 Form C + trace Form B]

Source: patent US20250320215A1, “SALTS OF N-[4-(4-[[2-(DIMETHYLAMINO)ETHYL]AMINO]-3-METHYL-1H-PYRAZOLO[3,4-D]PYRIMIDIN-6-YL)-2-FLUOROPHENYL]-2,5-DIFLUOROBENZENESULFONAMIDE AND CRYSTALLINE FORMS THEREOF” (THRYV THERAPEUTICS INC, priority 2022, published 2025)
